Measurements published in PubChem BioAssay (NCI).
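GI50 marks 50% less growth. At the TGI there is no net growth.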

Experiments:
Test in all cases: NCI-60 cell line screen, 384-well format
[1] = test system: HOP-92 NSCLC
[2] = test system: K-562 leukemia
[3] = test system: OVCAR-3 ovarian
[4] = test system: HCC-2998 colon
[5] = test system: UACC-257 melanoma
[6] = test system: MDA-MB-435 melanoma
[7] = test system: SNB-75 CNS
[8] = test system: A549 NSCLC
[9] = test system: DU-145 prostate
[10] = test system: HT29 colon
[11] = test system: SF-539 CNS
[12] = test system: NCI-H460 NSCLC
[13] = test system: 786-0 renal
[14] = test system: UO-31 renal
[15] = test system: SN12C renal
[16] = test system: PC-3 prostate
[17] = test system: LOX IMVI melanoma
[18] = test system: CCRF-CEM leukemia
[19] = test system: COLO 205 colon
[20] = test system: NCI-H226 lung
[21] = test system: HOP-62 NSCLC
[22] = test system: NCI/ADR-RES ovarian
[23] = test system: RPMI-8226 leukemia
[24] = test system: A498 renal
[25] = test system: SW-620 colon
[26] = test system: MOLT-4 leukemia
[27] = test system: MDA-MB-468 breast
[28] = test system: HL-60(TB) leukemia
[29] = test system: SNB-19 CNS
[30] = test system: OVCAR-5 ovarian
[31] = test system: RXF 393 renal
[32] = test system: OVCAR-4 ovarian
[33] = test system: SF-295 CNS
[34] = test system: HS 578T breast
[35] = test system: OVCAR-8 ovarian
[36] = test system: SK-OV-3 ovarian
[37] = test system: SK-MEL-28 melanoma
[38] = test system: SR leukemia
[39] = test system: MALME-3M melanoma
[40] = test system: MDA-MB-231 breast
[41] = test system: SF-268 CNS
[42] = test system: NCI-H522 lung
[43] = test system: HCT-15 colon
[44] = test system: NCI-H23 lung
[45] = test system: U251 glioblastoma
[46] = test system: NCI-H322M lung
[47] = test system: EKVX NSCLC
[48] = test system: T-47D breast
[49] = test system: M14 melanoma
[50] = test system: BT-549 breast
[51] = test system: ACHN renal
[52] = test system: SK-MEL-5 melanoma
[53] = test system: IGROV1 ovarian
[54] = test system: CAKI-1 renal
[55] = test system: UACC-62 melanoma
[56] = test system: MCF7 breast
[57] = test system: TK-10 renal

CC(C)[C@]12O[C@H]1[C@@H]1O[C@]13[C@]1(O[C@H]1C[C@H]1C4=C(CC[C@@]13C)C(=O)OC4)[C@@H]2O
GI50 [1]: 12.3 nM
TGI [1]: 47.7 nM
GI50 [2]: < 10 nM
TGI [2]: 18.8 nM
GI50 [3]: < 10 nM
TGI [3]: 12.4 nM
GI50 [4]: 13.7 nM
TGI [4]: 31.3 nM
GI50 [5]: < 10 nM
TGI [5]: 21.2 nM
GI50 [6]: < 10 nM
TGI [6]: 18.1 nM
GI50 [7]: < 10 nM
TGI [7]: 21.9 nM
GI50 [8]: 15 nM
TGI [8]: > 100000 nM
GI50 [9]: < 10 nM
TGI [9]: < 10 nM
GI50 [10]: 11.1 nM
TGI [10]: > 100000 nM
GI50 [11]: < 10 nM
TGI [11]: 15.4 nM
GI50 [12]: < 10 nM
TGI [12]: < 10 nM
GI50 [13]: < 10 nM
TGI [13]: 17.7 nM
GI50 [14]: 11.4 nM
TGI [14]: 51.3 nM
GI50 [15]: < 10 nM
TGI [15]: 12.4 nM
GI50 [16]: 12.3 nM
TGI [16]: 52 nM
GI50 [17]: < 10 nM
TGI [17]: < 10 nM
GI50 [18]: < 10 nM
TGI [18]: 15.7 nM
GI50 [19]: < 10 nM
TGI [19]: 23.3 nM
GI50 [20]: < 10 nM
TGI [20]: 12.3 nM
GI50 [21]: < 10 nM
TGI [21]: < 10 nM
GI50 [22]: < 10 nM
TGI [22]: 26.1 nM
GI50 [23]: < 10 nM
TGI [23]: < 10 nM
GI50 [24]: < 10 nM
TGI [24]: 27.5 nM
GI50 [25]: < 10 nM
TGI [25]: 33.3 nM
GI50 [26]: < 10 nM
TGI [26]: < 10 nM
GI50 [27]: < 10 nM
TGI [27]: 20.8 nM
GI50 [28]: < 10 nM
TGI [28]: < 10 nM
GI50 [29]: 21.1 nM
TGI [29]: > 100000 nM
GI50 [30]: < 10 nM
TGI [30]: > 100000 nM
GI50 [31]: < 10 nM
TGI [31]: < 10 nM
GI50 [32]: < 10 nM
TGI [32]: < 10 nM
GI50 [33]: < 10 nM
TGI [33]: 21.3 nM
GI50 [34]: < 10 nM
TGI [34]: 18.4 nM
GI50 [35]: 10.6 nM
TGI [35]: 36.6 nM
GI50 [36]: < 10 nM
TGI [36]: 36.5 nM
GI50 [37]: < 10 nM
TGI [37]: < 10 nM
GI50 [38]: < 10 nM
TGI [38]: < 10 nM
GI50 [39]: < 10 nM
TGI [39]: 21 nM
GI50 [40]: < 10 nM
TGI [40]: 21.7 nM
GI50 [41]: 10.2 nM
TGI [41]: 27.7 nM
GI50 [42]: < 10 nM
TGI [42]: < 10 nM
GI50 [43]: < 10 nM
TGI [43]: 31.6 nM
GI50 [44]: < 10 nM
TGI [44]: < 10 nM
GI50 [45]: 11.3 nM
TGI [45]: 66 nM
GI50 [46]: 10.8 nM
TGI [46]: 31.8 nM
GI50 [47]: 10 nM
TGI [47]: 30.2 nM
GI50 [48]: < 10 nM
TGI [48]: 37 nM
GI50 [49]: 11.7 nM
TGI [49]: 24.1 nM
GI50 [50]: < 10 nM
TGI [50]: < 10 nM
GI50 [51]: < 10 nM
TGI [51]: 32.4 nM
GI50 [52]: < 10 nM
TGI [52]: 12.2 nM

CC[C@]1(O)C[C@H]2CN(CCc3c([nH]c4ccccc34)[C@@](C(=O)OC)(c3cc4c(cc3OC)N(C=O)[C@H]3[C@@](O)(C(=O)OC)[C@H](OC(C)=O)[C@]5(CC)C=CCN6CC[C@]43[C@@H]65)C2)C1
GI50 [1]: < 23.2 nM
TGI [1]: 41100 nM
TGI [2]: < 10.8 nM
TGI [3]: < 11 nM
TGI [5]: 20200 nM
GI50 [8]: 34.6 nM
TGI [10]: 36200 nM
TGI [11]: < 12.2 nM
TGI [12]: 13.1 nM
GI50 [13]: 14.3 nM
TGI [13]: 48100 nM
GI50 [14]: 446 nM
TGI [14]: > 84800 nM
GI50 [16]: < 10.5 nM
TGI [16]: > 61200 nM
GI50 [20]: 39.9 nM
TGI [20]: > 84900 nM
TGI [21]: 2330 nM
GI50 [22]: 1870 nM
TGI [22]: 4570 nM
GI50 [24]: < 16.3 nM
TGI [24]: 844 nM
GI50 [30]: 44.2 nM
GI50 [53]: < 27.3 nM
TGI [53]: > 35600 nM
TGI [31]: 78100 nM
GI50 [32]: 1400 nM
GI50 [33]: < 14.2 nM
TGI [33]: < 23.1 nM
GI50 [54]: 30.4 nM
TGI [54]: 18100 nM
GI50 [35]: < 12.1 nM
TGI [35]: 47 nM
TGI [55]: 26000 nM
TGI [37]: 56200 nM
TGI [56]: 4320 nM
TGI [39]: 29300 nM
TGI [40]: > 93800 nM
TGI [41]: 20300 nM
GI50 [43]: 72 nM
TGI [43]: 1310 nM
TGI [44]: 49.9 nM
GI50 [46]: 34 nM
GI50 [47]: 34.2 nM
TGI [47]: > 91800 nM
TGI [49]: 17800 nM
GI50 [57]: 54.5 nM
TGI [50]: 32.9 nM
GI50 [51]: 262 nM
TGI [51]: > 95900 nM
